“And” between values parts separate entries of the source, which are not always exact repeats. Equal entries are not always repeated.
Assays:
[1] = test system: WM266-4 melanoma cells; test: Cell viability assay (MTS) after miRNA transfection, with or without drug; Bliss synergy analysis; settings: [miR-7-5p] 5 nM + [drug] 50 μM, observed fractional inhibition of the combination
Method: (§1) Cells were seeded in 96-well plates at a density of 2.5×10^3 cells per well and transfected with miRNA precursor molecules as above. Cell viability was measured 5 days after transfection using CellTitre 96 Aqueous One Solution Cell Proliferation Assay Kit (MTS assay) and a FLUOstar OPTIMA microplate reader. For synergy analysis between drugs and miR-7-5p, cells were plated as above and drug or DMSO was added 3 days after transfection with miR-7-5p or miR-NC for 4 days, at which time cell viability was measured (7 days after transfection).
(§2) Statistical significance was calculated using Student's t test (one-tailed, unpaired) and the level of significance was set at p<0.05. Drug sensitivity (IC50) was calculated using GraphPad Software (GraphPad Prism, version 5.04). The Bliss additivism model was used for synergy analysis. […] Here, Ebliss is the fractional inhibition expected if the combination of miR-7-5p and drug B was exactly additive. If the experimentally measured fractional inhibition is greater than Ebliss, the combination is synergistic.

[2] = test system: WM266-4 melanoma cells; test: Drug sensitivity assay (cell viability after 4 days of drug); format: cell-based; settings: Homo sapiens, WM 266-4, 96 h, WM266-4 (wild type p53)
[3] = test system: A2058 melanoma cells; test: Cell viability assay (MTS) after miRNA transfection, with or without drug; Bliss synergy analysis; settings: observed fractional inhibition of the combination
Method: as §1, §2

[4] = test system: A2058 melanoma cells; test: Drug sensitivity assay (cell viability after 4 days of drug); format: cell-based; settings: Homo sapiens, 96 h, A2058 (wild type p53)
[5] = test system: MM96L melanoma cells; test: Cell viability assay (MTS) after miRNA transfection, with or without drug; Bliss synergy analysis; settings: observed fractional inhibition of the combination
Method: as §1, §2

[6] = test system: SK-MEL-28 melanoma cells; test: as above; settings: observed fractional inhibition of the combination
Method: as §1, §2

[7] = test system: melanoma cell lines (SK-MEL-28, WM266-4, MM96L and A2058); test: Drug sensitivity assay (cell viability after 4 days of drug); format: cell-based; settings: 96 h, range over the melanoma cell lines
[8] = [miR-7-5p] 5 nM + [drug] 150 μM
[9] = [miR-7-5p] 5 nM + [drug] 100 nM

| Structure (SMILES) | EObs [1] | IC50 [2] | EObs ([3]; [miR-7-5p] 5 nM + [drug] 50 μM) | EObs [3, 8] | IC50 [4] | EObs [5, 8] | EObs ([5]; [miR-7-5p] 5 nM + [drug] 500 μM) | EObs ([6]; [miR-7-5p] 5 nM + [drug] 50 nM) | EObs [6, 9] | EObs [3, 9] | IC50 [7] | EObs ([5]; [miR-7-5p] 2.5 nM^ + [drug] 50 nM) |
| --- | --- | --- | --- | --- | --- | --- | --- | --- | --- | --- | --- | --- |
| Cn1nnc2c(C(N)=O)ncn2c1=O [TMZ, temozolomide] | 0.748 and 0.732 | 73.1 µM | 0.680 | 0.811 and 0.633 | 167 µM | 0.747 | 0.864 and 0.878 | – | – | – | – | – |
| CCCS(=O)(=O)Nc1ccc(F)c(C(=O)c2c[nH]c3ncc(-c4ccc(Cl)cc4)cc23)c1F [PLX4032, vemurafenib] | – | – | – | – | – | – | – | 0.661 | 0.773 | 0.855 and 0.853 and 0.790 | 0.08 to 0.23 µM | 0.972 and 0.803 and 0.547 |
